The source of these data is patent US20230159509A1 (Amathus Therapeutics, Inc., priority 2020, published 2023).

The test has as its target T1, TRAP1 enzyme (Homo sapiens, UniProt Q12931).
T1 construct: 150 nM Trap1 enzyme was incubated with various concentrations of the test compound
T1 sequence (Q12931 60-704): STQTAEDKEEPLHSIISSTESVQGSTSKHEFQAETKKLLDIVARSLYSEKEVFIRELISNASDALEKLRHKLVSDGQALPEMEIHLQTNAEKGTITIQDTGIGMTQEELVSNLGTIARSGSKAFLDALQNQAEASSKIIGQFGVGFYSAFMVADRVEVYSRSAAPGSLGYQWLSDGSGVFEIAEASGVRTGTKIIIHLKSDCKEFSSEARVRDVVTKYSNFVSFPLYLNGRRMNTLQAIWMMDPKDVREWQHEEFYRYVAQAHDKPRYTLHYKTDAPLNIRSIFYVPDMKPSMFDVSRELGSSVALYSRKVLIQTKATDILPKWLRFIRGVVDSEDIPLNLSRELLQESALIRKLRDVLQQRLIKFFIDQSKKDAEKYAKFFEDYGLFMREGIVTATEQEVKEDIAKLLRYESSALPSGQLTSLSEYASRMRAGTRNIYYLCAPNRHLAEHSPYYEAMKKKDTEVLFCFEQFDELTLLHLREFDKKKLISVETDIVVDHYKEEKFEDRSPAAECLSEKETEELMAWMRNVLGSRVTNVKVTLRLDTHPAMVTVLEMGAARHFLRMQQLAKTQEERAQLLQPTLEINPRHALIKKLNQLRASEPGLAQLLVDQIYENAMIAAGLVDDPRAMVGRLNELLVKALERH
The test is described as follows: ADP Glo assay of TRAP1 ATPase activity. Type of test: biochemical. The note with it: for activation at 50 µM: 1 h, compound concentration 50 μM, read-out: ADP-Glo Percent Activation at 50 μM; for EC50: concentration for half maximal activation, read-out: ADP GLO DRC: GeoMean EC50; for Emax: maximal percent activation, read-out: ADP GLO DRC: Mean Emax. On the procedure: Potency of test compounds to modulate the ATPase activity of TRAP1 enzyme was evaluated using ADP Glo assay. The assay is based on quantification of the ADP generated from ATP in the ATPase reaction. The assay is performed in two steps; first, after the ATPase reaction an equal volume of ADP-Glo™ Reagent is added to terminate the ATPase reaction and deplete the remaining ATP. Second, the Kinase Detection Reagent is added to simultaneously convert ADP to ATP and allow the newly synthesized ATP to be measured using a luciferase/luciferin reaction.
All the assays were carried out in a 384-well Proxiplate. The buffer used was 25 mM Pipes pH-7.5, 40 mM KCl, 0.05 mM MgCl2, 0.025% BSA, 0.316 mM EGTA, 0.003% Empigen, 0.01% Igepal. 150 nM Trap1 enzyme was incubated with various concentrations of the test compound (0.79 μM-100 μM) at 37° C. for 30 mins (except in blank wells). 20 μM ATP was added to each well to start the reaction. The plate was spun for 1 min at 1200 rpm and then incubated at 37° C. for 60 mins. 5 μl of ADP Glo reagent was added to all the wells and spun the plate for 1 min at 1200 rpm and kept it on a shaker at ambient temperature for 60 mins. 10 μl of kinase detection mix was added to all the wells and the plate was read for Luminescence at 495 nm. The amount of ADP released was estimated from ATP/ADP standard curve generated at the same experimental conditions. Emax (Maximal percent activation) and EC50 (concentration for half maximal activation) were estimated by fitting the dose response data to a sigmoidal curve fitting equation using Graphpad Prism software V. 8.

Regarding `COc1ncc(NC(=O)c2nccn2C)cc1S(=O)(=O)Nc1c(C)cccc1C` [compound 2772], the activation at 50 µM lay in the range of 120 to 150%.
For orientation: EC50 means the concentration needed to bring the measured effect to its halfway point. The Emax is the maximal effect, on the per cent scale that the assay sets. With `CCc1cccc2sc(NS(=O)(=O)c3cc(NC(=O)c4ncc(-c5ccccc5)o4)cnc3OC)nc12` [compound 1552], the EC50 lay within 20 to 100 µM and the Emax is 119 to 159%.
On to `COc1ncc(NC(=O)c2cccc(C(F)(F)F)c2)cc1S(=O)(=O)Nc1c(C)cccc1C` [compound 2536], for which the activation at 50 µM was 151 to 180%.
Same read-out and setting: then `COc1ncc(NC(=O)c2cncn2C)cc1S(=O)(=O)Nc1c(C)cccc1C` [compound 2632], with 120 to 150%.
For `COc1ncc(NC(=O)c2c(C)nn(C)c2Cl)cc1S(=O)(=O)Nc1c(C)cccc1C` [compound 2582], the activation at 50 µM lay in the range of 120 to 150%.
In the case of `COc1ncc(NC(=O)c2cccn2C)cc1S(=O)(=O)Nc1c(C)cccc1C` [compound 2539], the activation at 50 µM was in the range of 181 to 352%.
On the same count and under the same terms, the figure for `COc1ncc(NC(=O)c2ccc(N3CCOCC3)c(F)c2)cc1S(=O)(=O)Nc1c(C)cccc1C` [compound 2655] is 181 to 352%.
On to `COc1ncc(NC(=O)c2cccc3ncn(C)c23)cc1S(=O)(=O)Nc1c(C)cccc1C` [compound 1394, N-(5-(N-(2,6-dimethylphenyl)sulfamoyl)-6-methoxypyridin-3-yl)-1-methyl-1H-benzo[d]imidazole-7-carboxamide], for which the EC50 lay within 20 to 100 µM and the Emax lay in the range of 160 to 199%.
The matching figures for `COc1ncc(NC(=O)c2coc(-c3ccccc3)n2)cc1S(=O)(=O)Nc1c(C)cccc1C` [compound 1312, N-(5-(N-(2,6-dimethylphenyl)sulfamoyl)-6-methoxypyridin-3-yl)-2-phenyloxazole-4-carboxamide]: less than 10 µM and 200 to 300%.
For `COc1ncc(NC(=O)c2ncc(-c3ccccc3)o2)cc1S(=O)(=O)Nc1c(C)cccc1C` [compound 2470], in that order: less than 10 µM and 160 to 199%.
In the case of `COc1ncc(NC(=O)c2ccn3cnnc3c2)cc1S(=O)(=O)Nc1c(C)cccc1C` [compound 2526], the activation at 50 µM lay within 120 to 150%.
The same measure, in the same setting: then `COc1ncc(NC(=O)c2ccc(N3CCCCC3)nc2)cc1S(=O)(=O)Nc1c(C)cccc1C` [compound 2544], with 181 to 352%; and `COc1ncc(NC(=O)c2ccc(N3CCOCC3)cc2F)cc1S(=O)(=O)Nc1c(C)cccc1C` [compound 2590], with 181 to 352%; and `COc1ncc(NC(=O)c2cc(C(C)C)on2)cc1S(=O)(=O)Nc1c(C)cccc1C` [compound 2689], with 181 to 352%.
Regarding `CCCC(C)c1cc(NS(=O)(=O)c2cc(NC(=O)c3ncc(-c4ccccc4)o3)cnc2OC)on1` (stereo not shown) [compound 1648], the EC50 was 20 to 100 µM and the Emax was in the range of 119 to 159%.
Take `COc1ncc(NC(=O)c2[nH]ncc2Cl)cc1S(=O)(=O)Nc1c(C)cccc1C` [compound 2779]: the activation at 50 µM lay within 151 to 180%.
Consider `COc1ncc(NC(=O)c2c[nH]c(-c3ccccc3)n2)cc1S(=O)(=O)Nc1c(C)cccc1C` [compound 2092], for which the EC50 was less than 10 µM and the Emax lay in the range of 200 to 300%.
On to `COc1ncc(NC(=O)c2cccc(CN(C)C)c2)cc1S(=O)(=O)Nc1c(C)cccc1C` [compound 2631], for which the activation at 50 µM was 151 to 180%.
On the same count and under the same terms, then `COc1ncc(NC(=O)c2ncoc2C)cc1S(=O)(=O)Nc1c(C)cccc1C` [compound 2718], with 151 to 180%; and `COc1ncc(NC(=O)c2ccc(C3CCN(C)CC3)cc2)cc1S(=O)(=O)Nc1c(C)cccc1C` [compound 2745], with 151 to 180%; and `COc1ncc(NC(=O)c2ccccc2C(F)(F)F)cc1S(=O)(=O)Nc1c(C)cccc1C` [compound 2550], with 151 to 180%.
The same measure, in the same setting: the figure for `COc1cccc(C(=O)Nc2cnc(OC)c(S(=O)(=O)Nc3c(C)cccc3C)c2)n1` [compound 2583] is 181 to 352%; for `COc1ncc(NC(=O)c2cnc(C(F)(F)F)s2)cc1S(=O)(=O)Nc1c(C)cccc1C` [compound 2660] it is 120 to 150%.
Consider `COc1ncc(NC(=O)c2ccc(OC3COC3)cc2)cc1S(=O)(=O)Nc1c(C)cccc1C` [compound 2568], for which the activation at 50 µM lay in the range of 181 to 352%.
Still for that read-out and setting: then `COc1ncc(NC(=O)c2cnn(C(F)(F)F)c2)cc1S(=O)(=O)Nc1c(C)cccc1C` [compound 2637], with 120 to 150%.
The same measure, in the same setting: then `COc1ncc(NC(=O)c2cc3c(s2)CCC3)cc1S(=O)(=O)Nc1c(C)cccc1C` [compound 2792], with 120 to 150%.
In the case of `COc1ncc(NC(=O)c2csc(-c3ccccc3)n2)cc1S(=O)(=O)Nc1ccnc2cccnc12` [compound 1779], the EC50 is 20 to 100 µM and the Emax lay within 119 to 159%.
On to `COc1ncc(NC(=O)c2csc(C(F)(F)F)c2)cc1S(=O)(=O)Nc1c(C)cccc1C` [compound 2683], for which the activation at 50 µM lay in the range of 120 to 150%.
The same measure, in the same setting: then `COc1ncc(NC(=O)c2cc3n(n2)CCCC3)cc1S(=O)(=O)Nc1c(C)cccc1C` [compound 2573], with 151 to 180%.
As for `COc1ncc(NC(=O)c2coc(-c3ccccc3)n2)cc1S(=O)(=O)Nc1c(C)cccc1Cl` [compound 1941, N-(5-(N-(2-chloro-6-methylphenyl)sulfamoyl)-6-methoxypyridin-3-yl)-2-phenyloxazole-4-carboxamide], the EC50 is less than 10 µM and the Emax fell in the range of 160 to 199%.
The matching figures for `COc1ncc(NC(=O)c2csc3c2CN(C(=O)OC(C)(C)C)CC3)cc1S(=O)(=O)Nc1c(C)cccc1C` [compound 1949, tert-butyl 3-((5-(N-(2,6-dimethylphenyl)sulfamoyl)-6-methoxypyridin-3-yl)carbamoyl)-6,7-dihydrothieno[3,2-c]pyridine-5(4H)-carboxylate]: less than 10 µM and 200 to 300%.
As for `COc1ncc(NC(=O)c2c(C)noc2C)cc1S(=O)(=O)Nc1c(C)cccc1C` [compound 2524], the activation at 50 µM was in the range of 151 to 180%.
Still for that read-out and setting: then `COc1ncc(NC(=O)c2ccc(S(=O)(=O)N(C)C)cc2)cc1S(=O)(=O)Nc1c(C)cccc1C` [compound 2593], with 151 to 180%.
Same read-out and setting: the figure for `COc1ncc(NC(=O)c2c3c(nn2C)CCC3)cc1S(=O)(=O)Nc1c(C)cccc1C` [compound 2528] is 181 to 352%; for `COc1ncc(NC(=O)c2nc3c(s2)CN(C)CC3)cc1S(=O)(=O)Nc1c(C)cccc1C` [compound 2594] it is 151 to 180%; for `COc1ncc(NC(=O)c2ccc(N(C)C)nc2)cc1S(=O)(=O)Nc1c(C)cccc1C` [compound 2788] it is 181 to 352%.
On the same count and under the same terms, the figure for `COc1ncc(NC(=O)c2cnn3c2CCCC3)cc1S(=O)(=O)Nc1c(C)cccc1C` [compound 2673] is 181 to 352%; for `COc1ncc(NC(=O)c2csnc2C)cc1S(=O)(=O)Nc1c(C)cccc1C` [compound 2703] it is 120 to 150%.
In the case of `COc1ncc(NC(=O)c2ncc(-c3ccccc3)o2)cc1S(=O)(=O)Nc1cc(C2CCCCC2)no1` [compound 1640], the EC50 fell in the range of 10 to 20 µM and the Emax fell in the range of 160 to 199%.
Turning to `COc1ncc(NC(=O)c2coc(-c3ccc(F)cc3)n2)cc1S(=O)(=O)Nc1c(C)cc(F)cc1C` [compound 1937, N-(5-(N-(4-fluoro-2,6-dimethylphenyl)sulfamoyl)-6-methoxypyridin-3-yl)-2-(4-fluorophenyl) oxazole-4-carboxamide], the EC50 was less than 10 µM and the Emax is 119 to 159%.
For `Cc1ncoc1C(=O)Nc1cc(S(=O)(=O)Nc2ccc(Cl)cc2)cc[n+]1[O-]` [compound 1294, 4-(N-(4-chlorophenyl)sulfamoyl)-2-(4-methyloxazole-5-carboxamido)pyridine 1-oxide], in that order: 20 to 100 µM and 119 to 159%.
As to `COc1ncc(NC(=O)c2ccc(N3CCN(C)CC3)cc2Cl)cc1S(=O)(=O)Nc1c(C)cccc1C` [compound 2774], the activation at 50 µM is 181 to 352%.
The same measure, in the same setting: then `COc1ncc(NC(=O)c2ccc(C#N)cc2)cc1S(=O)(=O)Nc1c(C)cccc1C` [compound 2529], with 181 to 352%.
